Reference: patent US20030170606A1, “High-throughput screening assays for modulators of mitochondrial membrane potential” (priority 1999, published 2003)

Test system: UCP1
Experiment: DiSC3 fluorescence assay in permeabilized UCP1-expressing yeast cells (YUCP)
Assay type: cell-based
Procedure: To make the cells permeable to externally added compounds, the yeast cells were treated with zymolyase. The spheroplasts were cultured in full media for 0.5 hours and pelleted. The pellets were resuspended in a lysis buffer and stored at about −80° C. The permeabilized cells can be kept in this way for at least one half year without loss of activity.
To assess the effects of known modulators of uncoupling activity and of uncoupling protein activity, the following fluorescence intensity measurements were carried out: Permeabilized cells were combined with the fluorescent dye DiSC3 in buffer and incubated for about 5-60 min., usually less than about 30 min. The resulting fluorescence intensity (λexc=620 nm, λem=670 nm) corresponded to the basal ΔΨm. The mitochondria accumulate the fluorescent dye into the matrix in proportion to the ΔΨm, and at basal ΔΨm, the DiSC3 fluorescence is substantially quenched.
A Beckman Multimek™ 96 Automated 96-channel Pipettor was programmed to mix test compounds from master plates with the buffer containing freshly premixed permeabilized cells (0.1 OD) and DiSC3 (0.1 μM) and transfer this mixture to black 96-well plates. An LJL analyst was used in the fluorescence intensity mode to measure the DiSC3 fluorescence. […] A total of about 3,300 compounds were screened in this way to test the feasibility of this method.
Data are presented in FIG. 7B after transformation of the fluorescence data according to (Fcompd/Fcontrol−1), where Fcompd is the fluorescence intensity of a given well (as shown in FIG. 7A), and Fcontrol is the basal fluorescence obtained as an average intensity in column 1 where no compound was added (instead an equivalent volume of dimethyl sulfoxide (DMSO) was added).

Nc1nc2c(ncn2[C@@H]2O[C@H](COP(=O)(O)OP(=O)(O)O)[C@@H](O)[C@H]2O)c(=O)[nH]1 [GDP]
DiSC3 fluorescence level upon addition of compound (100 μM added in the presence of BrPalm): reverted back to the level close to basal intensity

N#CC(C#N)=NNc1ccc(Cl)cc1 [CCCP, carbonyl-cyanide p-chlorophenylhydrazone]
DiSC3 fluorescence level upon addition of compound (1 μM): fluorescence reaches a maximum level

[Cl-].[K+] [KCl]
change in DiSC3 fluorescence intensity (plasma membrane potential control) (0 to 125 mM): no change in fluorescence intensity

CCCCCCCCCCCCCCC(Br)C(=O)O (stereo not shown) [BrPalm, 2-bromo-palmitate]
DiSC3 fluorescence level upon addition of compound (5 to 10 μM): higher fluorescence level
